Key:
[1] = target: T1, isolated recombinant JAK2 kinase domain (Homo sapiens, UniProt O60674); test: JAK2 enzyme assay (Caliper LabChip, Ki); type: biochemical; conditions: 25 μM ATP
T1 construct: The activity of the isolated recombinant JAK1 and JAK2 kinase domain was measured
Procedure, shortened: (§1)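 Values are Ki estimates derived with the Morrison tight-binding equation modified for competition with ATP. Activity of the recombinant kinase domains was measured as peptide phosphorylation on a Caliper LabChip after a 30-minute, 22° C reaction terminated by EDTA.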

[2] = system: JAK1-dependent STAT6 phosphorylation downstream of IL-13 stimulation in BEAS-2B human bronchial epithelial cells; test: JAK1 pathway assay in BEAS-2B cells (IL-13 stimulated STAT6 phosphorylation, MSD); type: cell-based; conditions: read-out: P-STAT6 BEAS2B + IL13 IC50
Procedure, shortened: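 BEAS-2B human bronchial epithelial cells, plated the day before in complete growth medium, were preincubated with compound for 1 hr at 37° C (0.2% DMSO final), then stimulated with IL-13 at its EC90 for 15 min. STAT6 phosphorylation in lysates was read by MSD; EC50 was taken as 50% inhibition versus DMSO control.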

[3] = target: T2, isolated recombinant JAK1 kinase domain (Homo sapiens, UniProt P23458); test: JAK1 enzyme assay (Caliper LabChip, Ki); type: biochemical; conditions: recombinant JAK1 kinase domain, 25 μM ATP
T2 construct: The activity of the isolated recombinant JAK1 and JAK2 kinase domain was measured
T2 sequence (P23458 875-1153 limits assumed): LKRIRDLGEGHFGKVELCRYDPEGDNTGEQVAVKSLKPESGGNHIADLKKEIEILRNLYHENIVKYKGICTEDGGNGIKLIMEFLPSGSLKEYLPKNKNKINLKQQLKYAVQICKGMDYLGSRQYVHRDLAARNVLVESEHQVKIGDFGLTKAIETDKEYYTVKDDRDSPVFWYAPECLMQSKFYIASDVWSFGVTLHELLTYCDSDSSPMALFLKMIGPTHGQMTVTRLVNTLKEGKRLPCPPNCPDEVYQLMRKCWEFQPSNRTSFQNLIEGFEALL
Procedure, shortened: as §1

T1 sequence (O60674 849-1124 limits assumed): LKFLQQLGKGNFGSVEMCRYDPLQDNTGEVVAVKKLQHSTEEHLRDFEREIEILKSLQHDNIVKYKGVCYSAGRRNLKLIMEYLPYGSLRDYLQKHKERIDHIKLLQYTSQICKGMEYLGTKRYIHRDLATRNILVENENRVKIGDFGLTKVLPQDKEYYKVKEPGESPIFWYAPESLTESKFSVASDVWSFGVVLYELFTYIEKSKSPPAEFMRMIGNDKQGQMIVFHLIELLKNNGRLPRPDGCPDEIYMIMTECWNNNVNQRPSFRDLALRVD

Row | Ki [1] [nM] | Ki [3] [nM] | SMILES | IC50 [2] [nM]
1 | 0.85 | 0.41 | CC(C)Sc1ccc(OC(F)F)c(-c2nn(CC(=O)N3CCN(CCOCCO)CC3)cc2NC(=O)c2cnn3cccnc23)c1 [Example 122, N-[3-[2-(difluoromethoxy)-5-isopropylsulfanyl-phenyl]-1-[2-[4-[2-(2-hydroxyethoxy)ethyl]piperazin-1-yl]-2-oxo-ethyl]pyrazol-4-yl]pyrazolo[1,5-a]pyrimidine-3-carboxamide] | 42
2 | 2 | 0.79 | CC(C)Sc1ccc(OC(F)F)c(-c2nn(CC(=O)N3CCC(N(C)CC4OCCO4)CC3)cc2NC(=O)c2cnn3cccnc23)c1 [Example 123, N-[3-[2-(difluoromethoxy)-5-isopropylsulfanyl-phenyl]-1-[2-[4-[1,3-dioxolan-2-ylmethyl(methyl)amino]-1-piperidyl]-2-oxo-ethyl]pyrazol-4-yl]pyrazolo[1,5-a]pyrimidine-3-carboxamide] | 38
3 | 1.1 | 0.92 | CC(C)Sc1ccc(OC(F)F)c(-c2nn(CC(=O)N3CC4CCCNC4C3)cc2NC(=O)c2cnn3cccnc23)c1 (stereo not drawn) [Example 124, N-[1-[2-(1,2,3,4,4a,5,7,7a-octahydropyrrolo[3,4-b]pyridin-6-yl)-2-oxo-ethyl]-3-[2-(difluoromethoxy)-5-isopropylsulfanyl-phenyl]pyrazol-4-yl]pyrazolo[1,5-a]pyrimidine-3-carboxamide] | 59
4 | 0.94 | 0.47 | CC(C)Sc1ccc(OC(F)F)c(-c2nn(CC(=O)N3CCN(C4CCOCC4)CC3)cc2NC(=O)c2cnn3cccnc23)c1 [Example 125, N-[3-[2-(difluoromethoxy)-5-isopropylsulfanyl-phenyl]-1-[2-oxo-2-(4-tetrahydropyran-4-ylpiperazin-1-yl)ethyl]pyrazol-4-yl]pyrazolo[1,5-a]pyrimidine-3-carboxamide] | 17
5 | 0.84 | 0.37 | CC(C)Sc1ccc(OC(F)F)c(-c2nn(CC(=O)N3CCN(CCCO)CC3)cc2NC(=O)c2cnn3cccnc23)c1 [Example 126, N-[3-[2-(difluoromethoxy)-5-isopropylsulfanyl-phenyl]-1-[2-[4-(3-hydroxypropyl)piperazin-1-yl]-2-oxo-ethyl]pyrazol-4-yl]pyrazolo[1,5-a]pyrimidine-3-carboxamide] | 43
6 | 0.97 | 0.48 | CC(C)Sc1ccc(OC(F)F)c(-c2nn(CC(=O)N3CCN(CC4(C)COC4)CC3)cc2NC(=O)c2cnn3cccnc23)c1 [Example 127, N-[3-[2-(difluoromethoxy)-5-isopropylsulfanyl-phenyl]-1-[2-[4-[(3-methyloxetan-3-yl)methyl]piperazin-1-yl]-2-oxo-ethyl]pyrazol-4-yl]pyrazolo[1,5-a]pyrimidine-3-carboxamide] | 35
7 | 1.2 | 0.58 | CC(C)Sc1ccc(OC(F)F)c(-c2nn(CC(=O)N3CCN(C4CCOC4)CC3)cc2NC(=O)c2cnn3cccnc23)c1 (stereo not drawn) [Example 128, N-[3-[2-(difluoromethoxy)-5-isopropylsulfanyl-phenyl]-1-[2-oxo-2-(4-tetrahydrofuran-3-ylpiperazin-1-yl)ethyl]pyrazol-4-yl]pyrazolo[1,5-a]pyrimidine-3-carboxamide] | 47
8 | 0.99 | 0.42 | CC(C)Sc1ccc(OC(F)F)c(-c2nn(CC(=O)N3CCC(N4CC(C#N)C4)CC3)cc2NC(=O)c2cnn3cccnc23)c1 [Example 129, N-(1-[2-[4-(3-cyanoazetidin-1-yl)piperidin-1-yl]-2-oxoethyl]-3-[2-(difluoromethoxy)-5-(propan-2-ylsulfanyl)phenyl]-1H-pyrazol-4-yl)pyrazolo[1,5-a]pyrimidine-3-carboxamide] | 26
9 | 0.8 | 0.41 | CC(C)Sc1ccc(OC(F)F)c(-c2nn(CC(=O)N3CCN(CCO)CC3)cc2NC(=O)c2cnn3cccnc23)c1 [Example 131, N-[3-[2-(difluoromethoxy)-5-isopropylsulfanyl-phenyl]-1-[2-[4-(2-hydroxyethyl)piperazin-1-yl]-2-oxo-ethyl]pyrazol-4-yl]pyrazolo[1,5-a]pyrimidine-3-carboxamide] | 30
10 | 1.2 | 0.67 | CC(C)Sc1ccc(OC(F)F)c(-c2nn(CC(=O)N3CCC(C)(N4CCOCC4)CC3)cc2NC(=O)c2cnn3cccnc23)c1 [Example 132, N-[3-[2-(difluoromethoxy)-5-isopropylsulfanyl-phenyl]-1-[2-(4-methyl-4-morpholino-1-piperidyl)-2-oxo-ethyl]pyrazol-4-yl]pyrazolo[1,5-a]pyrimidine-3-carboxamide] | 36
11 | 0.87 | 0.43 | CC(C)Sc1ccc(OC(F)F)c(-c2nn(CC(=O)N3CCN(CC4CCOCC4)CC3)cc2NC(=O)c2cnn3cccnc23)c1 [Example 135, N-[3-[2-(difluoromethoxy)-5-isopropylsulfanyl-phenyl]-1-[2-oxo-2-[4-(tetrahydropyran-4-ylmethyl)piperazin-1-yl]ethyl]pyrazol-4-yl]pyrazolo[1,5-a]pyrimidine-3-carboxamide] | 24
12 | 1.2 | 0.49 | CC(C)Sc1ccc(OC(F)F)c(-c2nn(CC(=O)N3CCC(CN4CCOCC4)CC3)cc2NC(=O)c2cnn3cccnc23)c1 [Example 136, N-[3-[2-(difluoromethoxy)-5-isopropylsulfanyl-phenyl]-1-[2-[4-(morpholinomethyl)-1-piperidyl]-2-oxo-ethyl]pyrazol-4-yl]pyrazolo[1,5-a]pyrimidine-3-carboxamide] | 20
13 | 1.5 | 0.5 | CC(C)Sc1ccc(OC(F)F)c(-c2nn(CC(=O)N3CCC(C(=O)N4CCN(C)CC4)CC3)cc2NC(=O)c2cnn3cccnc23)c1 [Example 137, N-[3-[2-(difluoromethoxy)-5-isopropylsulfanyl-phenyl]-1-[2-[4-(4-methylpiperazine-1-carbonyl)-1-piperidyl]-2-oxo-ethyl]pyrazol-4-yl]pyrazolo[1,5-a]pyrimidine-3-carboxamide] | 66
14 | 0.17 | 0.22 | CC(C)Sc1ccc(OC(F)F)c(-c2nn(CC(=O)N3CCC(N4CC[S+]([O-])CC4)CC3)cc2NC(=O)c2cnn3cccnc23)c1 [Example 138, N-[3-[2-(difluoromethoxy)-5-isopropylsulfanyl-phenyl]-1-[2-oxo-2-[4-(1-oxo-1,4-thiazinan-4-yl)-1-piperidyl]ethyl]pyrazol-4-yl]pyrazolo[1,5-a]pyrimidine-3-carboxamide] | 250
15 | 0.84 | 0.51 | CC(C)Sc1ccc(OC(F)F)c(-c2nn(CC(=O)N3CCC(N4CCn5cncc5C4)CC3)cc2NC(=O)c2cnn3cccnc23)c1 [Example 139, N-[3-[2-(difluoromethoxy)-5-isopropylsulfanyl-phenyl]-1-[2-[4-(6,8-dihydro-5H-imidazo[1,5-a]pyrazin-7-yl)-1-piperidyl]-2-oxo-ethyl]pyrazol-4-yl]pyrazolo[1,5-a]pyrimidine-3-carboxamide] | 140
16 | 1.7 | 0.63 | CC(C)Sc1ccc(OC(F)F)c(-c2nn(CC(=O)N3CCN(CC4CCN(CC(=O)N(C)C)CC4)CC3)cc2NC(=O)c2cnn3cccnc23)c1 [Example 140, N-[3-[2-(difluoromethoxy)-5-isopropylsulfanyl-phenyl]-1-[2-[4-[[1-[2-(dimethylamino)-2-oxo-ethyl]-4-piperidyl]methyl]piperazin-1-yl]-2-oxo-ethyl]pyrazol-4-yl]pyrazolo[1,5-a]pyrimidine-3-carboxamide] | 51
17 | 1.9 | 0.78 | CC(C)Sc1ccc(OC(F)F)c(-c2nn(CC(=O)N3CCN(CC4CCN(CC(=O)N5CCOCC5)CC4)CC3)cc2NC(=O)c2cnn3cccnc23)c1 [Example 141, N-[3-[2-(difluoromethoxy)-5-isopropylsulfanyl-phenyl]-1-[2-[4-[[1-(2-morpholino-2-oxo-ethyl)-4-piperidyl]methyl]piperazin-1-yl]-2-oxo-ethyl]pyrazol-4-yl]pyrazolo[1,5-a]pyrimidine-3-carboxamide] | 36
18 | 2 | 0.88 | CC(C)Sc1ccc(OC(F)F)c(-c2nn(CC(=O)N3CCN(C4CCN(CC(=O)N(C)C)CC4)CC3)cc2NC(=O)c2cnn3cccnc23)c1 [Example 142, N-[3-[2-(difluoromethoxy)-5-isopropylsulfanyl-phenyl]-1-[2-[4-[1-[2-(dimethylamino)-2-oxo-ethyl]-4-piperidyl]piperazin-1-yl]-2-oxo-ethyl]pyrazol-4-yl]pyrazolo[1,5-a]pyrimidine-3-carboxamide] | 110
19 | 2.5 | 0.92 | CC(C)Sc1ccc(OC(F)F)c(-c2nn(CC(=O)N3CCC(N4CCN(C5COC5)CC4)CC3)cc2NC(=O)c2cnn3cccnc23)c1 [Example 143] | 89

Row | SMILES | Ki [1] [nM] | Ki [3] [nM] | IC50 [2] [nM]
20 | CC(C)Sc1ccc(OC(F)F)c(-c2nn(CC(=O)N3CCC(N4CC5CC(C4)O5)CC3)cc2NC(=O)c2cnn3cccnc23)c1 [Example 130, N-[3-[2-(difluoromethoxy)-5-isopropylsulfanyl-phenyl]-1-[2-[4-(6-oxa-3-azabicyclo[3.1.1]heptan-3-yl)-1-piperidyl]-2-oxo-ethyl]pyrazol-4-yl]pyrazolo[1,5-a]pyrimidine-3-carboxamide] | 1 | 0.57 | 19

Reference: patent US20180265515A1 (Genentech, Inc., priority 2015, published 2018)
